The source of these data is patent US10752900B2, “Oligonucleotides for modulating gene expression and uses thereof” (BIOGENERA S.P.A., priority 2012, dated 2020).

For one data set, the system named is MYCN gene. In words: QT-PCR, MYCN mRNA in WERI-Rb1 cells. Format: cell-based. The note with it: Table 6. On the procedure: For the purpose of assessing the ability of the oligonucleotides of the present invention to modulate the expression of the target genes, their ability to reduce the quantity of messenger RNA was analyzed using the Real-Time PCR technique. For this purpose, use was made of 24-well plates, which were seeded with 5.0×10^4 cells with 0.3 ml of OPTI-MEM (GIBCO BRL) medium, 4% FBS and 2 mM L-glutammine (experiments in triplicate) per well. The cells were incubated for 24 hours at 37° C., in an atmosphere containing 5% CO2 to permit adherence to the base of the wells. For each well, the oligonucleotides were analyzed at the following final concentrations: • the antisense oligonucleotides siRNA and siRNA gapmer (i.e. the oligonucleotides containing one or more monomers of chemically modified nucleic acids at the 3' or 5' end, while in the central portion they have monomers of nucleic acids that have not been modified or have been modified at the level of the phosphodiester bond as a phosphorothioate bond) were used at 200 nM; • the antisense oligonucleotides containing phosphorothioate DNA monomers, the RNA antigene oligonucleotides (agRNA) and the oligonucleotides containing DNA monomers and LNA monomers were used at 10 μM; • the morpholino oligonucleotides were used at a concentration of 1 μM, and • the PNA oligonucleotides were administered at a concentration of 1 μM. The cells were treated with the oligonucleotides, adding FBS up to 4% 6 hours after administration of the same. After 24 hours the total RNA was extracted from each well and purified using the RNeasy Mini Kit (QIAGEN). As a control, use was made of the same cell lines as listed above treated with sterile water instead of oligonucleotides. Each RNA sample was quantified (in duplicate) using a NanoDrop ND-1000 spectrophotometer (NanoDrop Technologies). The first strand of cDNA was produced using the cDNA Synthesis Kit for RT-PCR (Roche). For the cDNA synthesis reaction a total of 1 μg of RNA was used. For the real-time PCR, 10 ng of cDNA in a final volume of 20 μl was used with SYBR Green Master Mix 2× (Applied Biosystems) (3 identical experiments were conducted in triplicate). Two housekeeping genes were used as positive controls: GAPDH and beta-actin (ACTB). The conditions of the QT-PCR reaction were: 10 min at 95° C., 20 sec at 95° C., and 30 sec at 60° C., for 50 cycles. The PNAs having SEQ ID NO: 1-12 were also tested on different cell lines which overexpress MYCN (Kelly, SKNBE2c, RH30, […] 1 and H69). The results are shown in Table 6 and confirm the selectivity and specificity of the inhibition effect of the PNAs on the product of protein translation of the MYCN gene.

The next data set relates to WERI-Rb1. The experiment in a line: Cellular proliferation assay (ATP-Lite), WERI-Rb1 cells. It is filed as cell-based. The conditions noted are these: Table 6. The protocol: For the purpose of assessing the gene modulation ability of the oligonucleotides of the present invention, the effect of their administration on cell viability was determined. For this purpose 5×10^3 cells per well were seeded into 96-well cell culture plates (experiments conducted in triplicate) with 100 μl of OPTI-MEM (GIBCO BRL) medium containing 4% FBS and 2 mM of L-glutammine. The PNA oligonucleotides were administered at different concentrations (1 μM-2.5 μM-5 μM-10 μM) in order to observe a dose-effect relationship. The viability of the treated cells was determined at 48, 72, 96 and 168 hours after treatment. Cell viability was assessed by means of an ATP-Lite assay (Luminescence ATP Detection Assay System, PerkinElmer) and is reported as the ratio between the average signal of the treated wells compared to the average value of the wells of untreated control cells. The cells were processed following the instructions provided with the kit. The assays were performed on the same cell lines used to determine the levels of the MYCN gene messenger and listed in the paragraph: Treatments with Oligonucleotides-QT-PCR. The PNAs having SEQ ID NO: 1-12 were also tested on different cell lines which overexpress MYCN (Kelly, SKNBE2c, RH30, […] 1 and H69). The results are shown in Table 6 and confirm the selectivity and specificity of the inhibition effect of the PNAs on the product of protein translation of the MYCN gene.

“SEQ ID NO: 12: PNA antigene oligonucleotide TGTCTGGACGCGCTGG directed against MYCN (all peptide nucleic acid (PNA))”: the “WERI-Rb1 % mRNA” value in the data set on MYCN gene was 30%. The “WERI-Rb1 % cell prol.” value with WERI-Rb1 worked out at 84%.
Consider “SEQ ID NO: 5: PNA antigene oligonucleotide GCTGGGTGGATGCGGG directed against MYCN (PNA backbone, chemistry not fully specified)”, for which the “WERI-Rb1 % mRNA” value in the data set on MYCN gene is recorded as 38%. For the same substance, the “WERI-Rb1 % cell prol.” value in the data set on WERI-Rb1 is 80%.
For the substance “SEQ ID NO: 2: PNA antigene oligonucleotide GGGTGGATGCGGGGGG directed against MYCN (PNA backbone, chemistry not fully specified)”, the “WERI-Rb1 % mRNA” value in the data set on MYCN gene worked out at 46%. Also, the “WERI-Rb1 % cell prol.” value in the data set on WERI-Rb1 is 79%.
Turning to “SEQ ID NO: 11: PNA antigene oligonucleotide GGGAACTGTGTTGGAG directed against MYCN (PNA backbone, chemistry not fully specified)”, the “WERI-Rb1 % mRNA” value with MYCN gene was determined as 30%. The “WERI-Rb1 % cell prol.” value in the data set on WERI-Rb1 is listed as 84%.
For “SEQ ID NO: 6: PNA antigene oligonucleotide TGGACGCGCTGGGTGG directed against MYCN (PNA backbone, chemistry not fully specified)”, the “WERI-Rb1 % mRNA” value with MYCN gene is 37%. Also, in the data set on WERI-Rb1, the “WERI-Rb1 % cell prol.” value turned out to be 80%.
Take “SEQ ID NO: 9: PNA antigene oligonucleotide CCCTGCAGTCGGCGGG directed against MYCN (all peptide nucleic acid (PNA))”: the “WERI-Rb1 % mRNA” value in the data set with MYCN gene came out at 36%. Further, in the data set with WERI-Rb1, the “WERI-Rb1 % cell prol.” value is reported as 79%.
Taken in the same sequence, the figures for “SEQ ID NO: 4: PNA antigene oligonucleotide GTCGGCGGGAGGTAAG directed against MYCN (PNA backbone, chemistry not fully specified)” were 41% and 79%.
Taken in the same sequence, the figures for “SEQ ID NO: 8: PNA antigene oligonucleotide GTCTGGACGCGCTGGG directed against MYCN (all peptide nucleic acid (PNA))” were 40% and 78%.
For “SEQ ID NO: 10: PNA antigene oligonucleotide CGGCCGCGGGCCGCCA directed against MYCN (PNA backbone, chemistry not fully specified)”, in that order: 30% and 85%.
Turning to “SEQ ID NO: 7: PNA antigene oligonucleotide CGCGCTGGGTGGATGC directed against MYCN (all peptide nucleic acid (PNA))”, the “WERI-Rb1 % mRNA” value with MYCN gene was 38%. For the same substance, the “WERI-Rb1 % cell prol.” value with WERI-Rb1 is given as 79%.
Regarding “SEQ ID NO: 1: PNA ATGCCGGGCATGATCT against MYCN; subject of patent EP 1618195, control sequence used for comparison (all peptide nucleic acid (PNA)) [reference compound]”, in the data set on MYCN gene, the “WERI-Rb1 % mRNA” value is reported as 31%. Also, the “WERI-Rb1 % cell prol.” value with WERI-Rb1 turned out to be 82%.
For “SEQ ID NO: 3: PNA antigene oligonucleotide GATGCGGGGGGCTCCT directed against MYCN (PNA backbone, chemistry not fully specified)”, in that order: 43% and 78%.
